# Measurements reported in patent US20240317760A1, “TRK KINASE INHIBITOR COMPOUND AND USE THEREOF” (HENAN MEDINNO PHARMACEUTICAL TECHNOLOGY CO., LTD., priority 2021, published 2024).
# Assays:
# Type in all cases: biochemical
# [1] = target: T1, TRKB (Homo sapiens, UniProt Q16620); test: Determination of inhibitory activity against TRKB kinase (ADP-Glo Kinase Assay); settings: ATP 20 μM, Poly (4:1 Glu, Tyr) Peptide 0.03 mg/ml
# T1 construct: purchased SignalChem N17-11G
# Procedure: (§1) Assay: Determination of Inhibitory Activity Against TRKA/B/C Kinases
# (§2) 1× volume of 5× kinase reaction buffer and 4× volume of water; 5 mM MgCl2; and 1 mM DTT.
# (§3) • 1). Gradiently diluting a compound 4-fold in a dilution plate with DMSO, with a starting compound concentration of 1000 nM. • 2). Diluting the compound 50-fold into 1× kinase reaction buffer and shaking it on a shaker for 20 minutes. • 3). Formulating 2× kinase with 1× of enzyme reaction buffer. • 4). Adding 2 μl kinase (formulated in step 3) to each well of the reaction plate. • 5). Adding 1 μl of the compound diluted in buffer to each well, sealing the plate with a sealing membrane and centrifuging the plate at 1000 g for 30 seconds and leaving it at room temperature for 10 minutes. • 6). Formulating 4×ATP & sub mixture with 1× enzyme reaction buffer and adding 1 μl of 4×ATP & sub mixture to the reaction plate. • 7). Sealing the plate with a sealing membrane and centrifuging the plate at 1000 g for 30 seconds and allowing it to react at room temperature for 60 minutes. • 8). Transferring 4 μl of ADP-Glo to 384 reaction plate and centrifuging the plate at 1000 rpm/min for 1 min, and then incubating it at 25° C. for 40 min. • 9). Transferring 8 μl of Detection solution to 384 reaction plate and centrifuging the plate at 1000 rpm/min for 1 min and incubating it at 25° C. for 40 min. • 10) Reading the RLU (Relative luminescence unit) signal using a Biotek multifunctional plate reader. The signal intensity was used to characterize the activity degree of kinase.
# (§4) The IC50 (half inhibition concentration) of a compound was obtained using the following non-linear fitting equation, wherein data analysis was performed using Graphpad 6.0 software.
# (§5) Y=Bottom+(Top−Bottom)/(1+10^((Log IC50−X)*Hill Slope)) • X: log value of compound concentration; and Y: inhibition rate (% inhibition)
# (§6) Data were exported from Biotek and analyzed manually. The ratios were converted to inhibition rates and IC50 was calculated by Prism GraphPad 6.0 from the inhibition rates. IC50 was calculated again by the ratios to verify accuracy of the results.
# [2] = target: T2, TRKA (Homo sapiens, UniProt P04629); test: Determination of inhibitory activity against TRKA kinase (ADP-Glo Kinase Assay); settings: ATP 5 μM, Poly (4:1 Glu, Tyr) Peptide 0.03 mg/ml
# T2 construct: purchased Carna 08-186
# T2 sequence (P04629 33-796): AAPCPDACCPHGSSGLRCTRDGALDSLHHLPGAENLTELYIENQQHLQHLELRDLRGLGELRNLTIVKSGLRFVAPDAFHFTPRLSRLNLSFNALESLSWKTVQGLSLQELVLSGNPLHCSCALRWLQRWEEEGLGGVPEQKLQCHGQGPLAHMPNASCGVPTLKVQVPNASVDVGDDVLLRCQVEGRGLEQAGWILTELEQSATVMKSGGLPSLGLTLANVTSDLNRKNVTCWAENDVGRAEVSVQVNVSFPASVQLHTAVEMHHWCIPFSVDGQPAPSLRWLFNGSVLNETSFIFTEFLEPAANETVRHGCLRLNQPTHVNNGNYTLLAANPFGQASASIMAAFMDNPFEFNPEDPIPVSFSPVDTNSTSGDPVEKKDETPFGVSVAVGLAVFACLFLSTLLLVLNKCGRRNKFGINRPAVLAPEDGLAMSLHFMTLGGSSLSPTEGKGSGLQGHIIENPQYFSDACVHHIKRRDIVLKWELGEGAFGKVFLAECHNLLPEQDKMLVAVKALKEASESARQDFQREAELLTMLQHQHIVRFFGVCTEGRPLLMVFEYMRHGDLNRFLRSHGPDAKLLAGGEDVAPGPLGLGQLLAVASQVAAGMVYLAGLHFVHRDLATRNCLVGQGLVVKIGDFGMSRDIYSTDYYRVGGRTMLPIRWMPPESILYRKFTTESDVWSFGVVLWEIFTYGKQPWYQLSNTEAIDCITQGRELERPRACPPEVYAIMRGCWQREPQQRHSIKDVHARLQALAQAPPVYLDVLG
# Procedure: as §1, §2, §3, §4, §5, §6
# [3] = target: T3, TRKC (Homo sapiens, UniProt Q16288); test: Determination of inhibitory activity against TRKC kinase (ADP-Glo Kinase Assay); settings: ATP 5 μM, Poly (4:1 Glu, Tyr) Peptide 0.03 mg/ml
# T3 construct: purchased Carna 08-196
# T3 sequence (Q16288 32-839): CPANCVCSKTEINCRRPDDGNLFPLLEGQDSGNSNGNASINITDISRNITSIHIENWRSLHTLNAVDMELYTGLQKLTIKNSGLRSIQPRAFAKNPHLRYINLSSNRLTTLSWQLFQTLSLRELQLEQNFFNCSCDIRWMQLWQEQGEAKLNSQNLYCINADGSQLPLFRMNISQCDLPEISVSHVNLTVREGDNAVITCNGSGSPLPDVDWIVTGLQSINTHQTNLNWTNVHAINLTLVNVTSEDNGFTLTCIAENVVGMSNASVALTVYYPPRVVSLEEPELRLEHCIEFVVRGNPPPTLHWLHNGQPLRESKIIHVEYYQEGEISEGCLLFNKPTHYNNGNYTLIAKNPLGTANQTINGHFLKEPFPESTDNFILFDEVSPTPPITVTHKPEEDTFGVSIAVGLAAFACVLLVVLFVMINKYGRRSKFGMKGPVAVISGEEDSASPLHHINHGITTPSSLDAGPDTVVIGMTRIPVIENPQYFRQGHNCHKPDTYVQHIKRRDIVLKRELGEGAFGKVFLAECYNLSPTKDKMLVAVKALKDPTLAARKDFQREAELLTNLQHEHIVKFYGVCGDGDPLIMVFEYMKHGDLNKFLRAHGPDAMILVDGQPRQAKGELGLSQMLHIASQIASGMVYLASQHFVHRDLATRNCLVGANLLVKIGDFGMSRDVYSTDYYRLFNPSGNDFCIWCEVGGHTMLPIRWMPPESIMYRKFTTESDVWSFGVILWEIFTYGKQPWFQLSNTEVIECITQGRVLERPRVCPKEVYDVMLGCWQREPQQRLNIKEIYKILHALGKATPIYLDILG
# Procedure: as §1, §2, §3, §4, §5, §6
# T1 sequence (Q16620 32-822): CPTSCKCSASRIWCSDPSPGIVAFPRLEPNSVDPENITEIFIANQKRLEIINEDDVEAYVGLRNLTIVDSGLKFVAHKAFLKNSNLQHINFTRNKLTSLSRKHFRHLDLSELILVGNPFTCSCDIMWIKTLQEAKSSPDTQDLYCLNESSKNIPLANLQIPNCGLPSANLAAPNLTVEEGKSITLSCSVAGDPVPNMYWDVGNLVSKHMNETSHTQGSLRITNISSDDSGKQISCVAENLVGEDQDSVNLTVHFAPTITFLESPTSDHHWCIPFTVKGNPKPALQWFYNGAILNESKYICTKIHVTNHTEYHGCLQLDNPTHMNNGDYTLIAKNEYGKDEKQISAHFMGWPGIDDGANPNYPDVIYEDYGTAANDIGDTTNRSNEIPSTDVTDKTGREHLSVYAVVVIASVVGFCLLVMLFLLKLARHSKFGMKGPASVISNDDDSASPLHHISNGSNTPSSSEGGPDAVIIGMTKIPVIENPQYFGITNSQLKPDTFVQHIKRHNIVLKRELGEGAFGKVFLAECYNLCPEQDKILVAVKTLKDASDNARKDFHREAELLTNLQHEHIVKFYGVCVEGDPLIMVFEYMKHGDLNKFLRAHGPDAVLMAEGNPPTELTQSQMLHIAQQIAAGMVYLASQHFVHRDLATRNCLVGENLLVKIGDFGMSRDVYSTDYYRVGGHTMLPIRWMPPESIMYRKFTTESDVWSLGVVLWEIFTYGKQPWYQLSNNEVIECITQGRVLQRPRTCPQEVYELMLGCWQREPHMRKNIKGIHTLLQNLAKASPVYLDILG
Compound,IC50 [1],IC50 [2],IC50 [3]
"CC(Oc1ccc2[nH]nc(-c3nc4c([nH]3)CN(CC3CCN(C5CCC5)CC3)C4)c2c1)c1cc(F)cc(F)c1 (stereo not drawn) [Example 27, 3-(5-((1-Cyclobutylpiperidin-4-yl)methyl)-1,4,5,6-tetrahydropyrrolo[3,4-d]imidazol-2-yl)-5-(1-(3,5-difluorophenyl)ethoxy)-1H-indazole]",3.1 nM,0.42 nM,3.5 nM
CC(Oc1ccc2[nH]nc(-c3nc4c([nH]3)CN(CC3(C)CCN(C(C)C)CC3)C4)c2c1)c1cc(F)cc(F)c1 (stereo not drawn) [Example 28],3.9 nM,0.53 nM,1.4 nM
"CC(Oc1ccc2[nH]nc(-c3nc4c([nH]3)CN(C(C)C3CN(C)C3)C4)c2c1)c1cc(F)cc(F)c1 (stereo not drawn) [Example 34, 5-(1-(3,5-Difluorophenyl)ethoxy)-3-(5-(1-(1-methylazetidin-3-yl)ethyl)-1,4,5,6-tetrahydropyrrolo[3,4-d]imidazol-2-yl)-1H-indazole]",2 nM,4.6 nM,4.5 nM
"CCN1CCC(N2Cc3nc(-c4n[nH]c5ccc(OC(C)c6cc(F)cc(F)c6)cc45)[nH]c3C2)CC1 (stereo not drawn) [Example 38, 5-(1-(3,5-Difluorophenyl)ethoxy)-3-(5-(1-ethylpiperidin-4-yl)-1,4,5,6-tetrahydropyrrolo[3,4-d]imidazol-2-yl)-1H indazole]",1.9 nM,4.1 nM,3.6 nM
"CC(Oc1ccc2[nH]nc(-c3nc4c([nH]3)CN(C3CC5(C3)CN(C)C5)C4)c2c1)c1cc(F)cc(F)c1 (stereo not drawn) [Example 39, 5-(1-(3,5-Difluorophenyl)ethoxy)-3-(5-(2-methyl-2-azaspiro[3.3]heptan-6-yl)-1,4,5,6-tetrahydropyrrolo[3,4-d]imidazol-2-yl)-1H-indazole]",1 nM,6.8 nM,2.3 nM

# Further lines, results first:
IC50 [1],IC50 [2],IC50 [3],Compound
2.2 nM,1.5 nM,1.8 nM,"CC(Oc1ccc2[nH]nc(-c3nc4c([nH]3)CN(C(=O)N3CCN(C)CC3)C4)c2c1)c1cc(F)cc(F)c1 (stereo not drawn) [Example 29, (2-(5-(1-(3,5-Difluorophenyl)ethoxy)-1H-indazol-3-yl)-4,6-dihydropyrrolo[3,4-d]imidazol-5(1H)-yl)(4-methylpiperazin-1-yl)ketone]"
2 nM,0.94 nM,1.2 nM,"CC(Oc1ccc2[nH]nc(-c3nc4c([nH]3)CN(C(=O)OC3CCN(C)C3)C4)c2c1)c1cc(F)cc(F)c1 (stereo not drawn) [Example 30, 1-Methylpyrrolidin-3-yl 2-(5-(1-(3,5-difluorophenyl)ethoxy)-1H-indazol-3-yl)-4,6-dihydropyrrolo[3,4-d]imidazole-5(1H)-carboxylate]"
4.3 nM,1.1 nM,1.1 nM,"CC(Oc1ccc2[nH]nc(-c3nc4c([nH]3)CN(C(=O)OC3CN(C)C3)C4)c2c1)c1cc(F)cc(F)c1 (stereo not drawn) [Example 31, 1-Methylazetidin-3-yl 2-(5-(1-(3,5-difluorophenyl)ethoxy)-1H-indazol-3-yl)-4,6-dihydropyrrolo[3,4-d]imidazole-5(1H)-carboxylate]"
0.63 nM,0.23 nM,0.43 nM,C[C@@H](Oc1ccc2[nH]nc(-c3nc4c([nH]3)CN(CC3CCN(C)CC3)C4)c2c1)c1cc(F)cc(F)c1 [Example 32]
4.1 nM,0.46 nM,1.2 nM,"CC(Oc1ccc2[nH]nc(-c3nc4c([nH]3)CN(C(=O)OC3CCCN(C)C3)C4)c2c1)c1cc(F)cc(F)c1 (stereo not drawn) [Example 33, 1-Methylpiperidin-3-yl 2-(5-(1-(3,5-difluorophenyl)ethoxy)-1H-indazol-3-yl)-4,6-dihydropyrrolo[3,4-d]imidazole-5(1H)-carboxylate]"
3 nM,7.4 nM,7.7 nM,"CC(Oc1ccc2[nH]nc(-c3nc4c([nH]3)CN(C3CCN(C)C3)C4)c2c1)c1cc(F)cc(F)c1 (stereo not drawn) [Example 41, 5-(1-(3,5-Difluorophenyl)ethoxy)-3-(5-(1-methylpyrrolidin-3-yl)-1,4,5,6-tetrahydropyrrolo[3,4-d]imidazol-2-yl)-1H indazole]"
